US11083708B2, “Pharmacological restoration of epithelial or endothelial barrier integrity by agents blocking EPAC/RAP1 signaling” (The Regents of the University of California, priority 2018, dated 2021)
Entries after “also recorded” stand apart in the source; their conditions may differ.

Legend:
ET-induced footpad edema = assay: Mouse footpad edema assay: ET injected into the footpad after systemic drug pre-treatment; type: in vivo, BALB/cJ mice; settings: for Inhibition of ET-induced footpad swelling (edema): i.p. pre-treatment 2-3 h before ET 0.15 pg/20 pl, ESI-09, AG1024, H89 10 mg/kg, SecinH3 250 ul of 2.5 mM, also 2 h post toxin, edema at 8-10 h or 18-24 h
Description: To verify these conclusions in vivo, a footpad swelling assay was turned to in which intra-dermal injection of ET results in robust quantifiable edema. […] The question of which branch(es) of the cAMP pathway contributed to EF-mediated edema was examined by comparing the relative abilities of H89 and ESI-09 to block ET-induced footpad swelling. […] It was concluded that the Epac/Rap1 pathway is the primary mediator of EF-induced edema. In addition, the effect of AG1024 [47], an inhibitor of insulin-like growth factor receptor (IGF-1R), was tested. […] These findings, together with the results described above provide a framework for how effector pathways contribute to cAMP-mediated disruption of Rab11-dependent membrane trafficking (See FIG. 6 for summary diagram).
BALB/cJ mice (8-10 weeks old, female; Jackson Laboratories, Bar Harbor, Me.) were intraperitoneally injected with drugs. SecinH3 (TOCRIS #2849), AG1024 (Selleckchem, S1234), ESI-09 (TOCRIS #4773) or H89 (TOCRIS #2910), or with vehicle (70% DMSO in isotonic glucose for SecinH3, 30% DMSO in isotonic glucose for other drugs) 2-3 h prior to injection of ET (0.15 pg/20 pl, right footpad) or PBS (20 pl, left footpad), and in the case of SecinH3, also 2 h post toxin injection. ESI-09, AG1024 and H89 were administered at 10 mg/kg and SecinH3 was administered as 250 ul and 2.5 mM solution. Edema was assessed at 8-10 h, or 18-24 h by dorsal/plantar measurements using digital calipers.

HBMECs = assay: ET (EF+PA) intoxication of HBMEC cultures with drug co-treatment; anti-pan-cadherin stain of adherens junctions, Sec15-GFP punctae; type: cell-based, human; settings: EF and PA 0.2 pg/ml-0.4 pg/ml, co-treatment 24 hrs, Slit2 10 pg/ml, ESI-09 100 pM, H89 10 pM
Description: The relative contributions of the Arf6, Epac, and PKA pathways to EF-induced inhibition of Rab11 was next examined, making use of HBMEC cultures. […] To inhibit the Arf6 pathway, cells were treated with Slit2, a secreted peptide that activates the Robo4 receptor to promote vascular stability via stimulation of the ArfGAP GIT [27]. […] Next, to determine the relative contribution of each branch of the cAMP pathway, EF-intoxicated cells were co-treated with ESI-09, an inhibitor specific for Epac, or with H89, a well-characterized inhibitor of PKA[45]. […] It was concluded that Epac/Rap1 is the predominant pathway mediating the cAMP induced effects of ET on exocyst-dependent junctional traffic in this setting.
HBMEC cultures were maintained in DMEM (Corning; Manassas, Va.) containing 10% FBS, 1% Penicillin/streptomycin, 2 mM L-glutamine and were incubated in 37° C., 5% CO2 atmosphere. Cells were gently dislodged with 0.05% trypsin (Mediatech Inc.) and cultured on glass poly-D-lysine coated chamber slides (BD Falcon #354108). At about 80% confluence, EF and PA (0.2 pg/ml-0.4 pg/ml) were added to cells. […] After 24 hrs (FIGS. 5A-5H), cells were fixed for 10 mins at −20° C. in 100% Methanol, then washed with 0.1% Triton in PBS, Sec15GFP fluorescence was inspected directly, while Methanol-fixed cells were stained with a mouse anti pan-Cadherin antibody (Abcam, clone CH-19, 1/100). […]

## CC(C)(C)c1cc(C=C(C#N)C#N)cc(Br)c1O [AG1024]
ET-induced footpad edema
  Inhibition of ET-induced footpad swelling (edema): significant reduction of edema; also recorded: can be suppressed; also recorded: Strong, although less persistent, suppression of footpad swelling

## CC(C)(C)c1cc(C(=O)/C(C#N)=N/Nc2cccc(Cl)c2)no1 [ESI-09]
ET-induced footpad edema
  Inhibition of ET-induced footpad swelling (edema): absolute inhibition of edema; also recorded: strong inhibition of footpad swelling; also recorded: can be suppressed
ET-induced footpad edema; injected systemically in mice, 8 h and 18 h
  Reversal of ET footpad swelling at both early (8 h) and late (18 h) times: can reverse the footpad swelling
HBMECs
  Rescue of junctional pan-cadherin accumulation / adherens junctions (AJs) compromised by EF/ET: partially restore normal junctional traffic and visible AJs; also recorded: partially rescues pan-cadherin expression at AJs; also recorded: partially restore junctional barrier integrity

## O=S(=O)(NCCNC/C=C/c1ccc(Br)cc1)c1cccc2cnccc12 [H89]
ET-induced footpad edema
  Inhibition of ET-induced footpad swelling (edema): little or no effect
HBMECs
  Rescue of junctional pan-cadherin accumulation / adherens junctions (AJs) compromised by EF/ET: no detectable rescue; also recorded: does not appreciably rescue junctional cadherin expression

## COc1nc(-c2ccc3c(c2)OCO3)n(-c2ccc(NC(=O)CSc3ccccc3)cc2)n1 [SecinH3]
ET-induced footpad edema; SecinH3-pretreated mice showing malaise
  ET-induced edema in animals in which systemic pre-treatment induced observable symptoms of malaise: virtually abolished
ET-induced footpad edema; SecinH3 i.p., 250 ul of 2.5 mM solution, some animals
  Tolerability of systemic pre-treatment with the drug: observable symptoms of malaise
ET-induced footpad edema
  Inhibition of ET-induced footpad swelling (edema): strongly inhibited; also recorded: blocked EF-induced edema; also recorded: can be suppressed
